Data taken from patent US6838445B1, “Tumor antigen peptide originating in SART-1” (Kyogo Itoh, priority 1998, dated 2005).
Where no end group is shown, it is not given here.

Experiments:
[1] = test system: HLA-A2402-negative QG56 cells; test: Induction of CTLs from peripheral blood lymphocytes by peptide; IFN-γ release against QG56 target cells (ELISA); assay type: cell-based; settings: peripheral blood lymphocytes (HLA-A24 homo healthy donors) stimulated three times with 10 μM peptide, 8×10^4 effectors; target cells QG56 (1×10^4), negative control
Experimental: (§1) First, lymphocytes were isolated by Ficol method from peripheral blood of healthy donors whose HLA-A locus is A24 homo. The lymphocytes were aliquoted to a 24-well plate so as to be 2×10^6 cells/well, and cultured in a culture medium containing 45% RPMI 1640 medium, 45% AIM-V medium, 10% FCS and 100 U/ml IL-2. Each of the above-mentioned tumor antigen peptides was added to the culture medium so as to have a concentration of 10 μM, to stimulate the peripheral blood lymphocytes. One week later, the above-mentioned tumor antigen peptide was added thereto so as to have a concentration of 10 μM, together with about 2×10^5 of X-ray irradiated (50 Gy) peripheral blood lymphocytes, to carry out a second stimulation of the lymphocytes. After another week, a third stimulation was carried out by repeating the procedures in the same manner as above. After one week from the third stimulation, the cultured lymphocytes were collected. The amount of IFN-γ of the supernatant was assayed by ELISA, the supernatant being produced by reacting the above-mentioned lymphocytes (8×10^4) with HLA-A2402-positive KE-4 cells in which the tumor antigen protein was expressed and with HLA-A2402-negative QG56 cells in which the tumor antigen protein was expressed, respectively, as targeted cells (1×10^4).

[2] = test system: HLA-A2402-positive KE-4 cells; test: Induction of CTLs from peripheral blood lymphocytes by peptide; IFN-γ release against KE-4 target cells (ELISA); assay type: cell-based, human; settings: for induction of antigen peptide-specific CTLs from peripheral blood lymphocytes: conclusion from Table 1; for reactivity of peptide-stimulated peripheral blood lymphocytes against KE-4 compared with negative control QG56: from Table 1; for IFN-γ (pg/ml) in Supernatant: peripheral blood lymphocytes (HLA-A24 homo healthy donors) stimulated three times with 10 μM peptide, 8×10^4 effectors, target cells KE-4 (1×10^4)
Experimental: as §1

[3] = test system: KE-4CTL reacting with HLA-A2402-expressing VA-13 cells; test: IFN-γ production by KE-4CTL against peptide-pulsed HLA-A2402-expressing VA-13 cells (ELISA); assay type: cell-based, human; settings: peptide 10 μM for 2 hours on HLA-A2402-expressing VA-13 cells, 18 hours culture with 2×10^4 KE-4CTLs
Experimental: Concretely, when peripheral blood lymphocytes are isolated from HLA-A24 antigen-positive human and candidate peptides are added thereto to stimulate in vitro, it can be evaluated by determining whether or not CTLs that specifically recognize the candidate peptide-pulsed HLA-A24-positive cells are induced. Here, the presence or absence of the induction of the CTLs can be examined, for instance, by assaying an amount of various cytokines (for instance, IFN-γ) produced by CTLs in reaction with the antigen peptide presenting cells by means of enzyme-linked immunosorbent assay (ELISA) or the like. As the antigen peptide presenting cells (target cells) during the assay, there are included, for instance, esophageal cancer cell line KE-4 (FERM BP-5955). In addition, the induction can be examined by the method for assaying CTL toxicity on ^51Cr-labeled antigen peptide presenting cells (^51Cr-release assay, Int. J. Cancer, 58:317, 1994). Further, the induction can be examined by pulsing with candidate peptides to cells resulting from introduction of an expression plasmid into, for instance, COS-7 cells (ATCC No. CRL1651) and VA-13 cells (RIKEN CELL BANK), the expression plasmid for expressing HLA-A24 cDNA [Cancer Res., 55:4248-4252 (1995); Genbank Accession No. M64740]; reacting KE-4CTL (FERM BP-5954), or CTLs prepared in the manner described above, or the like with the resulting cells; and assaying an amount of various cytokines (for instance, IFN-γ) that are produced by CTLs.
HLA-A2402 cDNA (listed in Genbank Accession No. M64740) was obtained from KE-4 in accordance with the description in the publication (Cancer Res., 55:4248, 1995), and a recombinant plasmid was prepared by incorporating the resulting product into an expression vector pCR3 (manufactured by INVITROGEN). This plasmid was transfected to 10^4 cells of VA-13 cells (available from RIKEN CELL BANK; Ann. Med Exp. Biol. Fenn., 44:242, 1966) by lipofectin method in accordance with the publication (J. Exp. Med., 187:277, 1998), to thereby express HLA-A2402. Each of the peptides “725-733,” “740-750,” “746-755,” “746-756” and “758-766*” among those listed in Example 1 was added at 10 μM in 2 hours, and thereafter the mixture was cultured for 18 hours together with 2×10^4 of KE-4CTLs. An amount of IFN-γ produced by KE-4CTLs in the culture supernatant was assayed by ELISA method. […] Thereafter, the resulting product was developed by using Peroxidase Developing Kit T (manufactured by Sumitomo Bakelite Company, Limited), and thereafter its absorbance (405 nm) was determined. The resulting value was quantified by comparing it with the value obtained from standard IFN-γ. […]

## RMKKLDEEAL [746-755]
[1]
  IFN-γ (pg/ml) in Supernatant: 281.4 pg/mL
[2]
  induction of antigen peptide-specific CTLs from peripheral blood lymphocytes: antigen peptide-specific CTLs were induced
  reactivity of peptide-stimulated peripheral blood lymphocytes against KE-4 compared with negative control QG56: stronger reactivities against KE-4
  IFN-γ (pg/ml) in Supernatant: 595.5 pg/mL
[3]
  activity as HLA-A24-restricted tumor antigen peptide (amount of IFN-γ produced by KE-4CTLs, FIG. 1): function as HLA-A24-restricted tumor antigen peptides

## KMKTERRMKKL [740-750]
[3]
  activity as HLA-A24-restricted tumor antigen peptide (amount of IFN-γ produced by KE-4CTLs, FIG. 1): function as HLA-A24-restricted tumor antigen peptides

## AFRQLSHRF [725-733]
[3]
  activity as HLA-A24-restricted tumor antigen peptide (amount of IFN-γ produced by KE-4CTLs, FIG. 1): function as HLA-A24-restricted tumor antigen peptides

## RMKKLDEEALL [746-756]
[1]
  IFN-γ (pg/ml) in Supernatant: 392.0 pg/mL
[2]
  induction of antigen peptide-specific CTLs from peripheral blood lymphocytes: antigen peptide-specific CTLs were induced
  reactivity of peptide-stimulated peripheral blood lymphocytes against KE-4 compared with negative control QG56: stronger reactivities against KE-4
  IFN-γ (pg/ml) in Supernatant: 701.5 pg/mL
[3]
  activity as HLA-A24-restricted tumor antigen peptide (amount of IFN-γ produced by KE-4CTLs, FIG. 1): function as HLA-A24-restricted tumor antigen peptides
